Laboratory results: ChEMBL document CHEMBL1130153, “Inhibition of melanoma cell binding to type IV collagen by analogs of cell adhesion regulator” (J Med Chem, 1997)
Where a SMILES comes first, the peptide text is derived from it. [ ]: non-standard residue; d: D form. pY = N[C@@H](Cc1ccc(OP(=O)(O)O)cc1)C(=O)O

How the values were obtained:
[1] = Inhibition of melanoma cell adhesion to type IV collagen; format: functional, Homo sapiens
[2] = Inhibition of melanoma cell adhesion to type IV collagen;NE=no effect; format: functional, Homo sapiens

| IC50 [1] | Molecule | IC50 [2] |
| --- | --- | --- |
| 10 µM | CC[C@H](C)[C@H](NC(=O)[C@H](CCC(=O)O)NC(=O)[C@@H](N)C(C)C)C(=O)N[C@@H](CC(C)C)C(=O)N[C@@H](Cc1ccc(OP(=O)(O)O)cc1)C(=O)O (H-VEIL[pY]-OH) |  |
| 90 µM | H-VEILY-OH |  |
|  | H-YLIEV-OH | Not Active |
